In patent publication US11566007B2, “Ras inhibitors” (Revolution Medicines, Inc., priority 2019, dated 2023):

What was measured:
[1] = target: KRAS G12D (Homo sapiens (Human), UniProt P01116+P62937, G12D); assay: Ras-Raf (BRAF RBD) disruption / FRET / MOA assay, KRAS G12D; assay type: biochemical; settings: Ras-Raf disruption/FRET/MOA assay; class symbols; read-out: KRAS G12D FRET data IC50
In short: (§1)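 Ternary complex formation (Ras–compound–cyclophilin A) displacing BRAF RBD, monitored by TR-FRET. Three hours at 25° C with compound (top 30 μM final), then 1.5 h with the labelled antibodies. Lower ratio than DMSO indicates disruption; IC50 reported.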

[2] = target: KRAS G13D (Homo sapiens (Human), UniProt P01116+P62937, G13D); assay: Ras-Raf (BRAF RBD) disruption / FRET / MOA assay, KRAS G13D; assay type: biochemical; settings: read-out: IC50* KRAS G13D FRET data
Sequence of KRAS G13D (P01116-2 other isoform, or with tags, fused parts or gaps G13D): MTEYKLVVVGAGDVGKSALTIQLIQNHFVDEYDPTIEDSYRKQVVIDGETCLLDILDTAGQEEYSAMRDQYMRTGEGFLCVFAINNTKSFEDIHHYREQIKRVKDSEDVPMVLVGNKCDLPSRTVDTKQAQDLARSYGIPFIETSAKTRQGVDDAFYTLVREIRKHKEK
Sequence of KRAS G13D (P62937 whole entry): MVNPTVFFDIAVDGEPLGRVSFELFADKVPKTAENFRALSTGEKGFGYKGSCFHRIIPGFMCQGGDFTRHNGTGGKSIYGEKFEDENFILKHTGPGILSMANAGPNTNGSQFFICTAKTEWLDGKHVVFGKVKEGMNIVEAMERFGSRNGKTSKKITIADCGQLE
In short: as §1

[3] = target: KRAS G12V (Homo sapiens (Human), UniProt P01116+P62937, G12V); assay: Ras-Raf (BRAF RBD) disruption / FRET / MOA assay, KRAS G12V; assay type: biochemical; settings: read-out: IC50* KRAS G12V FRET data
Sequence of KRAS G12V (P01116-2 other isoform, or with tags, fused parts or gaps G12V): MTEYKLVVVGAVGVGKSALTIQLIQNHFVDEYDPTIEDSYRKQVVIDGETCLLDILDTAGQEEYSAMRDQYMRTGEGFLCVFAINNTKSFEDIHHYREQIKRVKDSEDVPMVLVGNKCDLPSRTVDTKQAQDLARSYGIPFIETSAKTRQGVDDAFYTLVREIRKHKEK
Sequence of KRAS G12V (P62937 whole entry): as the sequence (P62937 whole entry) above
In short: as §1

[4] = target: KRAS WT (Homo sapiens (Human), UniProt P01116+P62937); assay: Ras-Raf (BRAF RBD) disruption / FRET / MOA assay, KRAS WT; assay type: biochemical; settings: read-out: IC50* KRAS WT FRET data
Sequence of KRAS WT (P01116-2 other isoform, or with tags, fused parts or gaps): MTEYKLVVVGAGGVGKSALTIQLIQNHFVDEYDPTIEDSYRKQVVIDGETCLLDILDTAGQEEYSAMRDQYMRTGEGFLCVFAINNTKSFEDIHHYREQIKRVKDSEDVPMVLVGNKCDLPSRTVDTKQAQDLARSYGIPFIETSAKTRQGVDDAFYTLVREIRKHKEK
Sequence of KRAS WT (P62937 whole entry): as the sequence (P62937 whole entry) above
In short: as §1

[5] = system: NCI-H358 cells (K-Ras G12C); assay: Potency assay: pERK in NCI-H358 cells; assay type: cell-based, human; settings: Homo sapiens, NCI-H358; H358 KRAS G12C; read-out: pERK EC50
In short: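 4 h cpd, 37 °C; 10-pt 3-fold series, 10 mM DMSO top stock, duplicates. Readout pERK: AlphaLISA SureFire Ultra or In-Cell Western (IR-800CW secondary, DRAQ5 DNA stain). IC50, 4-PL fit vs log conc.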

[6] = target: K-Ras G13C (Homo sapiens (Human), UniProt P01116+P62937, G13C); assay: Ras-Raf (BRAF RBD) disruption / FRET / MOA assay, KRAS G13C; assay type: biochemical; settings: KRAS G13C; Ras-Raf disruption/FRET/MOA assay; read-out: IC50* KRAS G13C FRET data
Sequence of K-Ras G13C (P01116-2 other isoform, or with tags, fused parts or gaps G13C): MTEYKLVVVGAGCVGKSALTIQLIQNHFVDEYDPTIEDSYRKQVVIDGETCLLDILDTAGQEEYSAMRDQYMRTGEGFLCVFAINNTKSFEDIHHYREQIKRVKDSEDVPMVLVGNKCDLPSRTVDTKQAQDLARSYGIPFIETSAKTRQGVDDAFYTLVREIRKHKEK
Sequence of K-Ras G13C (P62937 whole entry): as the sequence (P62937 whole entry) above
In short: as §1

[7] = system: NCI-H358 (K-Ras G12C); assay: CellTiter-Glo cell viability assay, NCI-H358; assay type: cell-based, human; settings: Homo sapiens, NCI-H358, 120 h, NCI-H358, 5-day treatment; class symbols; read-out: Additional H358 Cell Viability assay data (K-Ras G12C, IC50)
In short: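 Viability measured by CellTiter-Glo luminescence on day 5 following direct addition of compound to plated cells. Values expressed as percent of mean DMSO signal; curves fitted with a four-parameter logistic model.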

[8] = target: K-Ras G12C (Homo sapiens (Human), UniProt P01116+P62937, G12C); assay: Ras-Raf (BRAF RBD) disruption / FRET / MOA assay, KRAS G12C; assay type: biochemical; settings: KRAS G12C; Ras-Raf disruption/FRET/MOA assay; read-out: IC50* KRAS G12C FRET data
Sequence of K-Ras G12C (P01116-2 other isoform, or with tags, fused parts or gaps G12C): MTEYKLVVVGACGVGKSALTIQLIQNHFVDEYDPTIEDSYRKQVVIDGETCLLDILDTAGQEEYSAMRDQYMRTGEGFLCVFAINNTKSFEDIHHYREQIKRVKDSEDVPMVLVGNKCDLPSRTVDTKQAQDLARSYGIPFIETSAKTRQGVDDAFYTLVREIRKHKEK
Sequence of K-Ras G12C (P62937 whole entry): as the sequence (P62937 whole entry) above
In short: as §1

[9] = target: NRAS G12C (Homo sapiens (Human), UniProt P01111+P62937, G12C); assay: Ras-Raf (BRAF RBD) disruption / FRET / MOA assay, NRAS G12C; assay type: biochemical; settings: read-out: IC50* NRAS G12C FRET data
Sequence of NRAS G12C (P01111 whole entry G12C): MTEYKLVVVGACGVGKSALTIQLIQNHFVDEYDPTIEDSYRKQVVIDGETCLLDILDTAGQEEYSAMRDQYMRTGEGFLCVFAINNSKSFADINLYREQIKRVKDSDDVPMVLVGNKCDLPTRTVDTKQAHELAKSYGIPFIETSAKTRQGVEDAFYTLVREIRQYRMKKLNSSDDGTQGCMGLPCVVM
Sequence of NRAS G12C (P62937 whole entry): as the sequence (P62937 whole entry) above
In short: as §1

[10] = target: KRAS G12S (Homo sapiens (Human), UniProt P01116+P62937, G12S); assay: Ras-Raf (BRAF RBD) disruption / FRET / MOA assay, KRAS G12S; assay type: biochemical; settings: Ras-Raf disruption/FRET/MOA assay; class symbols; read-out: KRAS G12S FRET data IC50
Sequence of KRAS G12S (P01116-2 other isoform, or with tags, fused parts or gaps G12S): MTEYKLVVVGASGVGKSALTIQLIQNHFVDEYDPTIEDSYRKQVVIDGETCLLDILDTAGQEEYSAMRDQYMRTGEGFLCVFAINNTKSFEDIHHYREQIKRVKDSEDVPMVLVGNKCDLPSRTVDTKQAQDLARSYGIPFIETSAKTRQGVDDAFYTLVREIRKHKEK
Sequence of KRAS G12S (P62937 whole entry): as the sequence (P62937 whole entry) above
In short: as §1

Sequence of KRAS G12D (P01116-2 other isoform, or with tags, fused parts or gaps G12D): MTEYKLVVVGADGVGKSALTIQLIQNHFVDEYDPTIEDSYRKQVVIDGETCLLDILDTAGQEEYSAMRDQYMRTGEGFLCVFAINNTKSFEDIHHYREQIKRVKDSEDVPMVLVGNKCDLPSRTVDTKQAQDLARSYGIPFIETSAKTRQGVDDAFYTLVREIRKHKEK
Sequence of KRAS G12D (P62937 whole entry): as the sequence (P62937 whole entry) above

Structure (SMILES) | IC50 [1] | IC50 [2] | IC50 [3] | IC50 [4] | EC50 [5] | IC50 [6] | IC50 [7] | IC50 [8] | IC50 [9] | IC50 [10]
C=CC(=O)N1CC[C@H](C(=O)N(C)[C@H](C(=O)N[C@H]2Cc3csc(n3)-c3ccc4c(c3)c(c(-c3cc(N5CCN(C)CC5)cnc3[C@H](C)OC)n4CC(F)(F)F)CC(C)(C)COC(=O)[C@@H]3CCCN(N3)C2=O)C(C)C)C1 [Example A410] | 1000 to 10000 nM | 100 to 1000 nM | 100 to 1000 nM | 100 to 1000 nM | < 5000 nM | 100 to 1000 nM | < 10 nM | 10 to 100 nM | 10 to 100 nM | 100 to 1000 nM
C=CC(=O)N1CC2CCC1CN2C(=O)N(C)[C@H](C(=O)N[C@H]1Cc2nc(cs2)-c2ccc3c(c2)c(c(-c2cccnc2[C@H](C)OC)n3CC)CC(C)(C)COC(=O)[C@@H]2CCCN(N2)C1=O)C(C)C [Example A420] | 1000 to 10000 nM | 1000 to 10000 nM | 100 to 1000 nM | 100 to 1000 nM | < 5000 nM | 100 to 1000 nM | 10 to 100 nM | 100 to 1000 nM | 100 to 1000 nM | 100 to 1000 nM
CCn1c(-c2cccnc2[C@H](C)OC)c2c3cc(ccc31)-c1cccc(c1)C[C@H](NC(=O)[C@H](C(C)C)N(C)C(=O)[C@H]1CCN(C(=O)/C=C/CF)C1)C(=O)N1CCC[C@H](N1)C(=O)OCC(C)(C)C2 [Example A449] | > 10000 nM | 1000 to 10000 nM | 1000 to 10000 nM | 1000 to 10000 nM | < 5000 nM | 100 to 1000 nM | 10 to 100 nM | 100 to 1000 nM | 100 to 1000 nM | 1000 to 10000 nM
C=CC(=O)N1CCC2(C1)OCN([C@H](C(=O)N[C@H]1Cc3cccc(c3)-c3ccc4c(c3)c(c(-c3cccnc3[C@H](C)OC)n4CC)CC(C)(C)COC(=O)[C@@H]3CCCN(N3)C1=O)C(C)C)C2=O (stereo partly drawn) [Example A459] | 1000 to 10000 nM | 1000 to 10000 nM | 1000 to 10000 nM | 1000 to 10000 nM | < 5000 nM | 100 to 1000 nM | 10 to 100 nM | 10 to 100 nM | 10 to 100 nM | 1000 to 10000 nM
CCn1c(-c2cccnc2[C@H](C)OC)c2c3cc(ccc31)-c1cccc(c1)C[C@H](NC(=O)[C@H](C(C)C)N(C)C(=O)[C@@H]1CCN(C(=O)C#CC(C)(C)N3CCC3)C1)C(=O)N1CCC[C@H](N1)C(=O)OCC(C)(C)C2 [Example A476] | 1000 to 10000 nM | 1000 to 10000 nM | 1000 to 10000 nM | 1000 to 10000 nM | < 5000 nM | 100 to 1000 nM | < 10 nM | 10 to 100 nM | 10 to 100 nM | 1000 to 10000 nM
C=CC(=O)N1CC(OCC(C(=O)N[C@H]2Cc3cccc(c3)-c3ccc4c(c3)c(c(-c3cccnc3[C@H](C)OC)n4CC)CC(C)(C)COC(=O)[C@@H]3CCCN(N3)C2=O)C(C)C)C1 (stereo partly drawn) [Example A483] | > 10000 nM | > 10000 nM | 1000 to 10000 nM | 1000 to 10000 nM | < 5000 nM | 1000 to 10000 nM | < 10 nM | 100 to 1000 nM | 100 to 1000 nM | > 10000 nM
C=CC(=O)N1CC[C@H](C(=O)N(C)[C@H](C(=O)N[C@H]2Cc3cccc(c3)-c3ccc4c(c3)c(c(-c3cccnc3[C@H](C)OC)n4CC#N)CC(C)(C)COC(=O)[C@@H]3CCCN(N3)C2=O)C(C)C)C1 [Example A510] | 1000 to 10000 nM | 1000 to 10000 nM | 1000 to 10000 nM | 1000 to 10000 nM | < 5000 nM | 100 to 1000 nM | 10 to 100 nM | 10 to 100 nM | 10 to 100 nM | 1000 to 10000 nM
CCn1c(-c2cccnc2[C@H](C)OC)c2c3cc(ccc31)-c1cccc(c1)C[C@H](NC(=O)[C@H](C(C)C)N(C)C(=O)C1CCN(C(=O)C#C[C@@H]3CC(F)(F)CN3C)C1)C(=O)N1CCC[C@H](N1)C(=O)OCC(C)(C)C2 (stereo partly drawn) [Example A526] | > 10000 nM | > 10000 nM | 1000 to 10000 nM | 1000 to 10000 nM | < 5000 nM | 1000 to 10000 nM | < 10 nM | 10 to 100 nM | 10 to 100 nM | 1000 to 10000 nM
CCn1c(-c2cccnc2[C@H](C)OC)c2c3cc(ccc31)-c1cc(O)cc(c1)C[C@H](NC(=O)[C@H](C(C)C)N(C)C(=O)[C@H]1CCN(C(=O)/C=C/C(F)(F)F)C1)C(=O)N1CCC[C@H](N1)C(=O)OCC(C)(C)C2 [Example A527] | 100 to 1000 nM | 10 to 100 nM | 10 to 100 nM | 10 to 100 nM | < 5000 nM | 10 to 100 nM | < 10 nM | < 10 nM | < 10 nM | 10 to 100 nM
CCn1c(-c2cccnc2[C@H](C)OC)c2c3cc(ccc31)-c1cccc(c1)C[C@H](NC(=O)[C@H](C(C)C)N(C)C(=O)[C@H]1CCN(C(=O)C#C[C@@H]3COCCN3C)C1)C(=O)N1CCC[C@H](N1)C(=O)OCC(C)(C)C2 [Example A528] | > 10000 nM | > 10000 nM | 1000 to 10000 nM | 1000 to 10000 nM | < 5000 nM | 1000 to 10000 nM | < 10 nM | 10 to 100 nM | 10 to 100 nM | 1000 to 10000 nM
CCn1c(-c2cccnc2[C@H](C)OC)c2c3cc(ccc31)-c1cc(O)cc(c1)C[C@H](NC(=O)[C@H](C(C)C)N(C)C(=O)c1ncc(NC(=O)/C=C/CN(C)C)n1C)C(=O)N1CCC[C@H](N1)C(=O)OCC(C)(C)C2 [Example A529] | 100 to 1000 nM | 100 to 1000 nM | 100 to 1000 nM | 100 to 1000 nM | < 5000 nM | < 10 nM | 10 to 100 nM | < 10 nM | < 10 nM | 100 to 1000 nM
CCn1c(-c2cccnc2[C@H](C)OC)c2c3cc(ccc31)-c1cccc(c1)C[C@H](NC(=O)[C@H](C(C)C)N(C)C(=O)[C@H]1CCN(C(=O)C#CC3(N(C)C)CCOC3)C1)C(=O)N1CCC[C@H](N1)C(=O)OCC(C)(C)C2 (stereo partly drawn) [Example A533] | > 10000 nM | > 10000 nM | 1000 to 10000 nM | 1000 to 10000 nM | < 5000 nM | 1000 to 10000 nM | < 10 nM | 10 to 100 nM | 10 to 100 nM | 1000 to 10000 nM
